This note sets out measurements from patent publication US9809602B2, “Compounds for treating viral infections” (INSTITUT PASTEUR KOREA, priority 2014, dated 2017).

Some results are limits rather than exact numbers.

The first test deals with genotype 1/2 chimeric cell culture derived HCV (HCVcc). Nature of the test: Genotype 1/2 chimeric HCVcc assay (nano-luciferase, HCV replication). It is filed as cell-based. The settings on record: Hepatitis C virus. The method in brief: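 Huh-7.5 cells (2400/well) pretreated 2 h with serially diluted compound, then infected with nano-luciferase genotype 1a/2a (JFH-1) chimeric HCVcc. At 72 h post infection, nano-luciferase reported replication and cellular ATP reported cytotoxicity; EC50 and CC50 by non-linear regression.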
Broadly, the EC50 is the concentration needed to bring the measured effect to its halfway point. Low readings indicate an effect from little substance, high ones a need for much substance. The compound `O=C(NCCCN1CCC(N2CCCCC2)CC1)c1ccc(Oc2ccc(Cl)cc2)cc1` [Compound 1109] had an EC50 of 1000 to 10000 nM. On the same count and under the same terms, the result for `O=C(NCCCN1CCC(N2CCCCC2)CC1)c1ccc(-c2ccc(Cl)cc2)cc1` [Compound 1021] reads 100 to 1000 nM; that for `COc1cccc(Oc2ccc(C(=O)NCCCN3CCC(N4CCCCC4)CC3)cc2)c1` [Compound 1064], more than 10000 nM. Same read-out and setting: the result for `N#Cc1cccc(-c2ccc(C(=O)NCCCN3CCC(N4CCCCC4)CC3)cc2)c1` [Compound 1150] reads 100 to 1000 nM.

For the compound `O=C(NCCCN1CCC(N2CCCCC2)CC1)c1ccc(Oc2cccc(C(F)(F)F)c2)cc1` [Compound 1108], the EC50 was in the range of 100 to 1000 nM. `O=C(NCCCN1CCC(N2CCCCC2)CC1)c1ccc(-c2ccncc2)cc1` [Compound 1024] came in with an EC50 of more than 10000 nM. Still for that read-out and setting: the result for `O=C(CCCN1CCC(N2CCCCC2)CC1)Nc1ccc(-c2ccc(C(F)(F)F)cc2)cc1F` [Compound 1114] reads 100 to 1000 nM. The same measure, in the same setting: the result for `CN(C)C1CCN(CCCNC(=O)c2ccc(Oc3ccccc3)cc2)CC1` [Compound 1068] reads 100 to 1000 nM; that for `O=C(NCCCN1CCC(N2CCCCC2)CC1)c1cc(-c2ccc(C(F)(F)F)cc2)cs1` [Compound 1082], 100 to 1000 nM. Compound `O=C(NCCCN1CCC(c2ccncc2)CC1)c1ccc(Oc2ccccc2)cc1` [Compound 1055] had an EC50 of more than 10000 nM. The same measure, in the same setting: the result for `O=C(CCCN1CCC(N2CCCCC2)CC1)Nc1ccc(-c2ccc(C(F)(F)F)cc2)nc1` [Compound 1116] reads 100 to 1000 nM.

In the case of `Cc1cccc(-c2ccc(C(=O)NCCCN3CCC(N4CCCCC4)CC3)cc2)c1` [Compound 1014], the EC50 was in the range of 1000 to 10000 nM.

The compound `O=C(NCCCN1CCC(N2CCCCC2)CC1)c1ccc(-c2ccc(C(F)(F)F)cc2)cc1F` [Compound 1153] had an EC50 of 100 to 1000 nM. Same read-out and setting: in the case of `O=C(NCCNc1ccc(N2CCCCC2)cc1)c1ccc(Oc2ccccc2)cc1` [Compound 1057] it was 1000 to 10000 nM; in that of `O=C(CCCN1CCC(N2CCCCC2)CC1)Nc1ccc(Oc2ccc(C(F)(F)F)cc2)cc1` [Compound 1078], 100 to 1000 nM.

The test is the same for the next values; noted with them: Hepatitis C virus, Huh7.5, 72 h.
Compound `CCOC(=O)c1c(NC(=O)NCc2c(-n3cccc3)sc(C(=O)N(C)C)c2C)sc2c1CCCC2` [Compound 52] showed a 50% effective concentration (EC50) of 100 to 1000 nM.

In turn, `COc1sc2c(c1CNC(=O)Nc1sc3c(c1C(=O)OC(C)(C)C)CCCC3)CCNC2` [Compound 126] showed an EC50 of less than 100 nM.

In turn, `CC(C)(C)OC(=O)c1c(NC(=O)NCc2c(-c3ccc(C(F)(F)F)nc3)sc3c2CCNC3)sc2c1CCCC2` [Compound 131] displayed a concentration giving a half-maximal response (EC50) of 100 to 1000 nM.

In the case of `CCOC(=O)c1c(NC(=O)NCc2c(C(F)(F)F)sc3c2CCNC3)sc2c1CC(C)CC2` (centres unmarked) [Compound 194], the EC50 is less than 100 nM. The same measure, in the same setting: in the case of `Cc1c(CN(C)C)sc(C(F)(F)F)c1CNC(=O)Nc1sc2c(c1C(=O)OC(C)(C)C)CCCC2` [Compound 134] it was less than 100 nM. In the case of `CC1Cc2c(sc(NC(=O)NCc3c(C(F)(F)F)sc4c3CCNC4)c2C(=O)OC(C)(C)C)C(C)C1` (centres unmarked) [Compound 266], the 50% effective concentration (EC50) was less than 100 nM.

`CCOC(=O)c1c(NC(=O)NCc2c(C(F)(F)F)sc3c2CCN(CC)C3)sc2c1CCCC2` [Compound 118] returned an EC50 of less than 100 nM.

As for `CCN1CCc2c(sc(-n3cccc3)c2CNC(=O)Nc2ccccc2C(=O)OC)C1` [Compound 10], the EC50 was more than 10000 nM. As to `CCN1CCc2c(sc(-n3cccc3)c2CNC(=O)Nc2sc(C)c(C)c2C(=O)OC(C)C)C1` [Compound 195], the EC50 is less than 100 nM. Still for that read-out and setting: the result for `O=C(NCc1c(C(F)(F)F)sc2c1CCNC2)Nc1sc2c(c1C(=O)OC1CCOCC1)CCCC2` [Compound 330] reads less than 100 nM. Same read-out and setting: the result for `CN(C)CCN1CCc2c(sc(C(F)(F)F)c2CNC(=O)Nc2sc3c(c2C(=O)OC(C)(C)C)CCCC3)C1` [Compound 355] reads less than 100 nM. For the compound `CCOC(=O)c1c(NC(=O)NCc2c(Br)sc3c2CCNC3)sc2c1CCC(C)C2` (centres unmarked) [Compound 165], the EC50 was less than 100 nM. `CCOC(=O)c1c(N(C)C(=O)NCc2c(-n3cccc3)sc3c2CCN(CC)C3)sc2c1CCCC2` [Compound 55]: the EC50 is 1000 to 10000 nM. The compound `CN1CCN(c2sc3c(c2CNC(=O)Nc2sc4c(c2C(=O)OC(C)(C)C)CCCC4)CCNC3)CC1` [Compound 144] registered an EC50 of 100 to 1000 nM. The same measure, in the same setting: in the case of `Cc1sc(NC(=O)NCc2c(-n3c(C)ccc3C)sc3c2CCNC3)c(C(=O)OC2CCOC2)c1C` (centres unmarked) [Compound 353] it was 1000 to 10000 nM; in that of `CN1CCc2c(sc(-n3cccc3)c2CNC(=O)Nc2sc3c(c2C(=O)OC(C)(C)C)CCCCC3)C1` [Compound 301], less than 100 nM; in that of `CCN1CCc2c(sc(-n3cccc3)c2CNC(=O)Nc2sc3c(c2C(=O)OC(C)(C)C)CCCCC3)C1` [Compound 115], less than 100 nM. Still for that read-out and setting: the result for `CCN1CCc2c(sc(-n3cccc3)c2CNC(=O)Nc2sc3c(c2C(=O)OC(C)(C)C)CCOC3)C1` [Compound 237] reads less than 100 nM; that for `CCOC(=O)c1c(NC(=O)NCc2c(C(F)(F)F)sc(CN(C)C)c2C)sc2c1CCCC2` [Compound 214], less than 100 nM. Still for that read-out and setting: in the case of `CCOC(=O)c1cc(C)ccc1NC(=O)NCc1c(-n2cccc2)sc2c1CCNC2` [Compound 104] it was 1000 to 10000 nM; in that of `CN1CCc2c(sc(Br)c2CNC(=O)Nc2sc3c(c2C(=O)OC(C)(C)C)CCCC3)C1` [Compound 185], less than 100 nM; in that of `CC(C)(C)OC(=O)c1c(NC(=O)NCc2c(-c3ccc(C(F)(F)F)cc3)sc3c2CCNC3)sc2c1CCCC2` [Compound 146], less than 100 nM. Regarding `CCOC(=O)c1c(NC(=O)NCc2c(C(F)(F)F)sc3c2CCNC3)sc2c1CCC(C)C2` (centres unmarked) [Compound 166], the EC50 was less than 100 nM. On the same count and under the same terms, the result for `CCOC(=O)c1c(NC(=O)NCc2c(-n3cccc3)sc3c2CCN(C)C3)sc2c1CCCC2` [Compound 67] reads less than 100 nM; that for `NC(=O)c1c(NC(=O)NCc2c(C(F)(F)F)sc3c2CCNC3)sc2c1CCCC2` [Compound 374], 1000 to 10000 nM. The same measure, in the same setting: in the case of `CCOC(=O)c1c(NC(=O)C(=O)NCc2c(C(F)(F)F)sc3c2CCNC3)sc2c1CCCC2` [Compound 120] it was 1000 to 10000 nM; in that of `CC(C)(C)OC(=O)c1c(NC(=O)NCc2c(-c3cc(F)cc(C(F)(F)F)c3)sc3c2CCNC3)sc2c1CCCC2` [Compound 246], 1000 to 10000 nM. Still for that read-out and setting: in the case of `CCOC(=O)c1c(NC(=O)NCc2c(-n3cccc3)sc3c2CCN(CC)C3)sc2c1CCCC2` [Compound 2] it was less than 100 nM; in that of `CCN1CCc2c(sc(-n3cccc3)c2CNC(=O)Nc2nccs2)C1` [Compound 13], more than 10000 nM; in that of `CN1CCc2c(sc(C(F)(F)F)c2CNC(=O)Nc2sc3c(c2C(=O)OC(C)(C)C)CCCC3)C1` [Compound 184], less than 100 nM. With `CCOC(=O)c1c(NC(=O)NCc2c(-n3cccc3)sc3c2CCN(CC)C3)sc2c1CCC2` [Compound 57], the half-maximal effective concentration (EC50) is less than 100 nM. The same measure, in the same setting: in the case of `CC(C)(C)OC(=O)c1c(NC(=O)NCc2c(-c3cccc(C#N)c3)sc3c2CCNC3)sc2c1CCCC2` [Compound 229] it was 100 to 1000 nM; in that of `Cc1sc(NC(=O)NCc2c(C(F)(F)F)sc3c2CCN(C)C3)c(C(=O)OC(C)C)c1C` [Compound 295], less than 100 nM; in that of `CCOC(=O)c1c(NC(=O)NCc2c(-n3cccc3)sc3c2CCCN3)sc2c1CCCC2` [Compound 101], 100 to 1000 nM. As for `CCN1CCc2c(sc(-n3cccc3)c2CNC(=O)Nc2sc(C)c(C)c2C(=O)OC(C)(C)C)C1` [Compound 25], the EC50 was less than 100 nM.
